Some test systems named below: DLD-1; XF498; LXFL 529; HOP-18; KM-20L2; DMS-273; DMS-114; SNB-78; RXF 631.
Common to all, as to assay: DTP human tumour cell line panel, 48 h

Results on 23 compounds are retold here after ChEMBL document CHEMBL1201862, “PubChem BioAssay data set” (2004).

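Briefly, cells in 96-well plates were exposed to five compound concentrations for 48 h, and endpoints were estimated by linear interpolation. Here, GI50 denotes the concentration required for 50% inhibition of growth.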 The source made the active and inactive calls. Rule as the data show it: active = GI50 up to about 1.1 µM and inactive = higher. Where only a bound is given, the exact number is not on record here.

`CSc1ccc(NC(=O)C2c3[nH]c4ccccc4c3C3CCC(C(C)(C)C)CC3C2C(=O)O)cc1` (stereo not drawn): the GI50 (usually the concentration at which growth is held to half of that of the control) with DLD-1 is 12.6 µM (inactive); with XF498, 17.9 µM (inactive); in the assay with LXFL 529, 15.9 µM (inactive); in the assay with HOP-18, 16.9 µM (inactive); in the assay on KM-20L2, 16.3 µM (inactive); in the assay with DMS-273 it was 16.4 µM (inactive). The GI50 was 19.8 µM (inactive) with DMS-114 and 17.2 µM (inactive) in the assay with SNB-78.

`Cc1nc(Nc2ccc([N+](=O)[O-])cc2)sc1C(=O)/C=C/c1ccc(N(C)C)cc1`: the GI50 with DLD-1 is 60.5 µM (inactive); in the assay on HOP-18, > 100 µM (inactive); in the assay with KM-20L2, 73.1 µM (inactive); in the assay on DMS-273, 77.3 µM (inactive); in the assay on DMS-114, 59.4 µM (inactive); in the assay with RXF 631, > 100 µM (inactive).

`N/C(=N\N=C\c1c[nH]c2ccccc12)Nc1ccccc1`: the GI50 in the assay with DLD-1 was 0.474 µM (active); in the assay on LXFL 529, 0.504 µM (active); in the assay with HOP-18 it was 17.9 µM (inactive); with KM-20L2, 0.327 µM (active); with DMS-273, 0.506 µM (active); in the assay on DMS-114 it was 0.357 µM (active). Further, the concentration for 50% growth inhibition (GI50) with SNB-78 is 1.08 µM (active).

Consider `CCOC(=O)N1CCC(=O)C[C@@H]1C/C=C/P1(=O)O[C@H](c2ccccc2)C(C)N1C(C)C` (stereo partly drawn), for which the GI50 in the assay with LXFL 529, with KM-20L2, in the assay with DMS-273, in the assay on DMS-114 and in the assay with SNB-78 was > 100 µM (inactive) in each case.

`c1ccc2c(CNCCCCCCNCc3cccc4ccccc34)cccc2c1`: the GI50 in the assay with DLD-1 was 3.78 µM (inactive); in the assay on XF498 it was 2.42 µM (inactive); in the assay on LXFL 529, 1.91 µM (inactive); with HOP-18 it was 15.5 µM (inactive); with KM-20L2, 2.61 µM (inactive); in the assay with DMS-273 it was 13.6 µM (inactive). For the same compound, the results for the GI50 in the assay on DMS-114, with SNB-78 and with RXF 631 were 7.45 µM (inactive), 9.44 µM (inactive) and 3.74 µM (inactive), respectively.

Take `Cc1c(Cl)cccc1NC(=O)C(=O)C1C(=O)NC(=O)NC1=O`: the GI50 in the assay on DLD-1, in the assay on XF498, with LXFL 529, in the assay with HOP-18, with KM-20L2 and with DMS-273 was > 100 µM (inactive) throughout. Further, the GI50 in the assay with SNB-78 was > 100 µM (inactive).

With `COCCNC(=O)C1C(=O)N(CCOC)C(=O)/C1=N/N` (stereo not drawn), the GI50 with DLD-1, with XF498, in the assay with LXFL 529, with KM-20L2, with DMS-273 and with SNB-78 was > 100 µM (inactive) each time.

As for `O=c1[nH]c(=O)n(C2OC(COP(=O)(O)OP(=O)(O)O)C(O)C2O)cc1F` (stereo not drawn), the GI50 is 0.226 µM (active) in the assay with DLD-1; 1.69 µM (inactive) in the assay on XF498; 0.555 µM (active) with LXFL 529; > 28 µM (inactive) in the assay with HOP-18; 0.923 µM (active) in the assay with KM-20L2; 0.456 µM (active) in the assay with DMS-273. Further, the GI50 in the assay with DMS-114 was 28.5 µM (inactive); in the assay on SNB-78, 5.79 µM (inactive).

For `COc1ccc2c3c(n(Cc4ccccc4)c(=O)c2c1)-c1cc(OC)c(OC)cc1C3C` (stereo not drawn), the GI50 in the assay with DLD-1 is 50.9 µM (inactive); with XF498, 7.96 µM (inactive); in the assay with LXFL 529, 10.4 µM (inactive); in the assay on HOP-18 it was 28.3 µM (inactive); in the assay on KM-20L2 it was 25.6 µM (inactive); with DMS-273 it was 7.6 µM (inactive). In addition, the GI50 is 23 µM (inactive) in the assay on DMS-114, 57.7 µM (inactive) in the assay on SNB-78 and 15.1 µM (inactive) with RXF 631.

With `CCOc1ccc(NC(=O)C(=O)NO)cc1`, the GI50 in the assay on DLD-1, in the assay with LXFL 529, in the assay with HOP-18, in the assay on KM-20L2, in the assay on DMS-273 and with DMS-114 was > 100 µM (inactive) in each case. Further, the GI50 in the assay on SNB-78 is > 100 µM (inactive).

For `Cc1cc(O)nc(CNC(=O)c2cccc3ccccc23)n1`, the GI50 in the assay with DLD-1, in the assay on XF498, in the assay on LXFL 529, with KM-20L2, in the assay on DMS-273 and with SNB-78 was > 100 µM (inactive) in each case.

For the compound `COC1C2C[C@@H](O)CCC2C(C(=O)OCCl)C[C@H]1O` (stereo partly drawn), the GI50 in the assay on DLD-1, in the assay with LXFL 529, in the assay on HOP-18, in the assay with KM-20L2, with DMS-273 and in the assay with DMS-114 was > 100 µM (inactive) each time. Also, the GI50 with SNB-78 and in the assay on RXF 631 was > 100 µM (inactive) each time.

Consider `COc1ccc(/C=C2\CCC(C)(CN(C)C)C2=O)cc1Br` (stereo not drawn), for which the GI50 with DLD-1 was 17.3 µM (inactive); in the assay with XF498 it was 18.8 µM (inactive); with LXFL 529 it was 17.9 µM (inactive); in the assay on HOP-18, 28.8 µM (inactive); with KM-20L2 it was 1.26 µM (inactive); in the assay on DMS-273, 18.2 µM (inactive). Also, the results for the GI50 in the assay with DMS-114 and with SNB-78 were 24.4 µM (inactive) and 38.1 µM (inactive), respectively.

With `NC1=NC(Cn2nc(-c3ccccc3)c3ccccc3c2=O)=NNC(=O)N1`, the GI50 in the assay on DLD-1, in the assay on LXFL 529, with HOP-18, in the assay with DMS-273 and with SNB-78 was > 100 µM (inactive) throughout.

On to `CC(C)c1ccc2c(c1)CCC1C(C)(C)[C@@H](O)CC[C@]21C` (stereo partly drawn), for which the GI50 in the assay on DLD-1 was 36.6 µM (inactive); in the assay with LXFL 529, 47.3 µM (inactive); with KM-20L2 it was 21.4 µM (inactive); with DMS-273, 31.8 µM (inactive); with DMS-114 it was 34.8 µM (inactive); in the assay with SNB-78, 47.4 µM (inactive).

Regarding `CN1CCC(CN2c3ccccc3Sc3ccccc32)CC1`, the GI50 in the assay on DLD-1 is 14.7 µM (inactive); in the assay with XF498 it was 11.5 µM (inactive); in the assay on LXFL 529, 14.4 µM (inactive); in the assay with HOP-18, 14.3 µM (inactive); with KM-20L2, 12.9 µM (inactive); in the assay on DMS-273, 13.4 µM (inactive). The GI50 is 15.9 µM (inactive) in the assay with DMS-114 and 15.8 µM (inactive) with SNB-78.

`CCSc1c2ccccc2c(-c2nc(F)nc(F)n2)n1CCc1ccccc1`: the GI50 in the assay on XF498, with LXFL 529, in the assay with KM-20L2, in the assay with DMS-273, with DMS-114 and in the assay with SNB-78 was > 100 µM (inactive) throughout. For the same compound, the GI50 with RXF 631 is > 100 µM (inactive).

Consider `CC(C)C1COC(c2cccc(C3=N[C@@H](C(C)C)CO3)n2)=N1` (stereo partly drawn), for which the GI50 in the assay with DLD-1, in the assay with XF498, with LXFL 529, in the assay with KM-20L2, in the assay on DMS-273 and with DMS-114 was > 100 µM (inactive) throughout. The GI50 in the assay on SNB-78 and in the assay on RXF 631 was > 100 µM (inactive) each time.

As for `N#Cc1cccc(N2C(=O)c3c(c(-c4ccccc4)c(-c4ccc(Sc5ccc(-c6c(-c7ccccc7)c7c(c(-c8ccccc8)c6-c6ccccc6)C(=O)N(c6cccc(C#N)c6)C7=O)cc5)cc4)c(-c4ccccc4)c3-c3ccccc3)C2=O)c1`, the GI50 in the assay on DLD-1 is > 100 µM (inactive); with XF498 it was 30.5 µM (inactive); in the assay on LXFL 529 it was 37.7 µM (inactive); in the assay on KM-20L2, > 100 µM (inactive); in the assay on DMS-273, > 100 µM (inactive); in the assay with DMS-114 it was 89.5 µM (inactive). The GI50 was 35.1 µM (inactive) in the assay on SNB-78 and > 100 µM (inactive) in the assay on RXF 631.

For `CC(C)=CCC/C(=C/CC/C(C)=C/CCc1ccoc1)C(=O)O`, the GI50 with DLD-1 was 84.5 µM (inactive); with XF498, > 100 µM (inactive); in the assay with LXFL 529, > 100 µM (inactive); with KM-20L2, > 100 µM (inactive); in the assay with DMS-114, > 100 µM (inactive); in the assay on SNB-78 it was > 100 µM (inactive).

Consider `CS/C(C)=N/OC(=O)NCCCCNc1ccc(N=[N+]=[N-])cc1`, for which the GI50 is > 100 µM (inactive) in the assay with DLD-1; 13.8 µM (inactive) with XF498; 24.1 µM (inactive) in the assay on LXFL 529; > 100 µM (inactive) in the assay on HOP-18; 41.5 µM (inactive) in the assay with KM-20L2; 13.1 µM (inactive) with DMS-114. The figures for the GI50 in the assay on SNB-78 and with RXF 631 were 82.6 µM (inactive) and 17.4 µM (inactive), respectively.

Consider `COCC12CC(CC1=O)C1C2ON2c3ccccc3C(=O)C12c1ccccc1` (stereo not drawn), for which the GI50 in the assay on DLD-1, in the assay on XF498, with LXFL 529, in the assay on HOP-18, in the assay with KM-20L2 and with DMS-273 was > 100 µM (inactive) each time. The GI50 in the assay with DMS-114 was > 100 µM (inactive); with SNB-78, 68.7 µM (inactive).

`c1csc(C[N+]23CN4CN(CN(C4)C2)C3)c1`: the GI50 in the assay on DLD-1 was 33.7 µM (inactive); in the assay with LXFL 529, 20.3 µM (inactive); in the assay on KM-20L2, 26.5 µM (inactive); in the assay on DMS-273, 18.9 µM (inactive); in the assay with DMS-114, 20.6 µM (inactive).
